# In US9351965B2, “Indazole derivatives useful as ERK inhibitors” (Merck Sharp & Dohme Corp., priority 2010, dated 2016):
# Target: fully phosphorylated, active Mouse ERK2 protein (Mus musculus (Mouse), UniProt P63085)
# Test: Active ERK2 (aERK) IMAP assay
# Assay type: biochemical
# Conditions: IMAP fluorescence polarization; 30 μM ATP; 30 minute pre-incubation
# Experimental: 14 μl of kinase buffer (10 mM Tris.HCl pH 7.2, 10 mM MgCl2, 0.01% Tween-20, 1 mM DTT) containing 0.4 ng unphosphorylated Mouse ERK2 protein was added to each well of a black 384-well assay plate. […] DMSO concentration during initial incubation is 6.7%. […] DMSO concentration during ERK activation was 4%. After one hour, reactions were terminated by addition of 60 μl IMAP detections beads in binding buffer (Molecular Devices). Binding was allowed to equilibrate for 30 minutes before reading the plate on an LJL Analyst Fluorescence Polarization plate reader.
# Active ERK2 (aERK) Assay:
# Activated ERK2 activity was also determined in the IMAP assay format using the procedure outlined above. […] Reactions proceeded for 30 minutes before termination by addition of 60 μl IMAP detection beads in binding buffer. Plates were read as above after 30 minute binding equilibration.
# Sequence of fully phosphorylated, active Mouse ERK2 protein (P63085 whole entry): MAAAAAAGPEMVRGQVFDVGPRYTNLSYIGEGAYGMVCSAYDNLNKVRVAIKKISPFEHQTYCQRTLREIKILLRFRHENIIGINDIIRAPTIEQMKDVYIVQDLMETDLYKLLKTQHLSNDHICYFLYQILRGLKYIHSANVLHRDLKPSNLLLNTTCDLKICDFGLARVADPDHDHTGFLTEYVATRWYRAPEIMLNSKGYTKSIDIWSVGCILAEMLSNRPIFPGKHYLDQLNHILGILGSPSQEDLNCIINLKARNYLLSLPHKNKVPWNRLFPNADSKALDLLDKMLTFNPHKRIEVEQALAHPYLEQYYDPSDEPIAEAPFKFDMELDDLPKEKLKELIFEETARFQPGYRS
row,Structure (SMILES),IC50 [nM]
1,"Cc1cc(-c2n[nH]c3ccc(C(=O)N[C@@H]4CCC[C@](O)(Cn5c(C(F)(F)F)nc6ccccc65)C4)cc23)ccn1 (relative stereo) [compound 67, N-[trans-3-hydroxy-3-[[2-(trifluoromethyl)-1H-benzimidazol-1-yl]methyl]cyclohexyl]-3-(2-methyl-4-pyridinyl)-1H-indazole-5-carboxamide]",436
2,"COC1(Cc2ccccc2F)CCCC(NC(=O)c2ccc3[nH]nc(-c4ccnc(C)c4)c3c2)C1 (centres unmarked) [compound 39, N-[3-[(2-fluorophenyl)methyl]-3-methoxycyclohexyl]-3-(2-methyl-4-pyridinyl)-1H-indazole-5-carboxamide]",28.5
3,"Cc1cc(-c2n[nH]c3ccc(C(=O)N[C@@H]4CCC[C@@](O)(Cn5c(=O)ccc6ccccc65)C4)cc23)ccn1 (relative stereo) [compound 93, N-[cis-3-hydroxy-3-[(2-oxo-1(2h)-quinolinyl)methyl]cyclohex-yl]-3-(2-methyl-4-pyridinyl)-1H-indazole-5-carboxamide]",165
4,"Cc1cc(-c2n[nH]c3ccc(C(=O)NC4CCCC(O)(Cc5c(F)cccc5F)C4)cc23)ccn1 (single isomer, unassigned) [compound 6, N-[3-[(2,6-difluorophenyl)methyl]-3-hydroxycyclohexyl]-3-(2-methyl-4-pyridinyl)-1H-indazole-5-carboxamide]",1000
5,"O=C(N[C@@H]1CCC[C@@](O)(Cn2ncc3ncccc32)C1)c1ccc2[nH]nc(-c3ccc4nccn4c3)c2c1 [compound 86, N-[cis-3-hydroxy-3-(1H-pyrazolo[4,3-b]pyridN-1-ylmethyl)cyclohexyl]-3-imidazo[1,2-a]pyridiN-6-yl-1H-indazole-5-carboxamide]",1000
6,"Cc1cc(-c2n[nH]c3ccc(C(=O)N[C@@H]4CCC[C@](O)(Cn5cc6ccccc6n5)C4)cc23)ccn1 (relative stereo) [compound 90, N-[trans-3-hydroxy-3-(2H-indazol-2-ylmethyl)cyclohexyl]-3-(2-methyl-4-pyridinyl)-1H-indazole-5-carboxamide]",27.4
7,"Cc1cc(-c2n[nH]c3ccc(C(=O)N[C@@H]4CCC[C@@](O)(Cn5cc6cccnc6n5)C4)cc23)ccn1 (relative stereo) [compound 78, N-[cis-3-hydroxy-3-(2H-pyrazolo[3,4-b]pyridin-2-ylmethyl)cyclohexyl]-3-(2-methyl-4-pyridinyl)-1H-indazole-5-carboxamide]",591
8,"Cc1cc(-c2n[nH]c3ccc(C(=O)NC4CCCC(Oc5cccc(F)c5)(C(N)=O)C4)cc23)ccn1 (centres unmarked) [compound 42, N-[3-(aminocarbonyl)-3-(3-fluorophenoxy)cyclohexyl]-3-(2-methyl-4-pyridinyl)-1H-indazole-5-carboxamide]",11.2
9,"Cc1cc(-c2n[nH]c3ccc(C(=O)NC4CCCC(O)(C(F)(F)c5ccccc5)C4)cc23)ccn1 (centres unmarked) [compound 46, N-[3-(difluorophenylmethyl)-3-hydroxycyclohexyl]-3-(2-methyl-4-pyridinyl)-1H-indazole-5-carboxamide]",630
10,"Cc1cc(-c2n[nH]c3ccc(C(=O)N[C@@H]4CCC[C@@](O)(Cn5ncc6ccncc65)C4)cc23)ccn1 (relative stereo) [compound 80, N-[cis-3-hydroxy-3-(1H-pyrazolo[3,4-c]pyridin-1-ylmethyl)cyclohexyl]-3-(2-methyl-4-pyridinyl)-1H-indazole-5-carboxamide]",35.1
11,"O=C(NC1CCCC(O)(Cc2ccccc2F)C1)c1ccc2[nH]nc(-c3ccc4ncsc4c3)c2c1 (single isomer, unassigned) [compound 10, 3-(6-benzothiazolyl)-N-[3-[(2-fluorophenyl)methyl]-3-hydroxycyclohexyl]-1H-indazole-5-carboxamide]",1000
12,"Cc1cc(-c2n[nH]c3ccc(C(=O)NN4CCCC(Oc5ccccc5Cl)C4)cc23)ccn1 (centres unmarked) [compound 36, N-[3-(2-chlorophenoxy)-1-piperidinyl]-3-(2-methyl-4-pyridinyl)-1H-indazole-5-carboxamide]",40.4
13,"Cc1cc(-c2n[nH]c3ccc(C(=O)NC4CCCC(O)(Cc5ccccc5F)C4)cc23)ccn1 (single isomer, unassigned) [compound 3, N-[3-[(2-fluorophenyl)methyl]-3-hydroxycyclo-hexyl]-3-(2-methyl-4-pyridinyl)-1H-indazole-5-carboxamide]",7.6
14,"Cc1cc(-c2n[nH]c3ccc(C(=O)N[C@@H]4CCC[C@](O)(Cn5c(=O)ccc6ccccc65)C4)cc23)ccn1 (relative stereo) [compound 89, N-[trans-3-hydroxy-3-[(2-oxo-1(2h)-quinolinyl)methyl]cyclohex-yl]-3-(2-methyl-4-pyridinyl)-1H-indazole-5-carboxamide]",714
15,"Cc1cc(-c2n[nH]c3ccc(C(=O)N[C@H]4CCC[C@@](O)(Cn5ncc6c(F)cccc65)C4)cc23)ccn1 (relative stereo) [compound 96, N-[trans-3-[(4-fluoro-1H-indazol-1-yl)methyl]-3-hydroxycyclohexyl]-3-(2-methyl-4-pyridinyl)-1H-indazole-5-carboxamide]",577
16,"Cc1cc(-c2n[nH]c3ccc(C(=O)N[C@H]4CCC[C@@](O)(Cn5cc6c(F)cccc6n5)C4)cc23)ccn1 (relative stereo) [compound 97, N-[trans-3-[(4-fluoro-2H-indazol-2-yl)methyl]-3-hydroxycyclohexyl]-3-(2-methyl-4-pyridinyl)-1H-indazole-5-carboxamide]",1000
17,"COc1cccc(F)c1C[C@@]1(O)CCC[C@@H](NC(=O)c2ccc3[nH]nc(-c4ccc(OC(C)C)cc4)c3c2)C1 [compound 26, N-[3(S)-[(2-fluoro-6-methoxyphenyl)methyl]-3-hydroxy-1(R)-cyclohexyl]-3-[4-(1-methylethoxy)phenyl]-1H-indazole-5-carboxamide]",79

# Further lines, results first:
row,IC50 [nM],Structure (SMILES)
1,28.7,"Cc1cc(-c2n[nH]c3ccc(C(=O)NN4CCCC4CCc4ccccc4)cc23)ccn1 (centres unmarked) [compound 145, 3-(2-methyl-4-pyridinyl)-N-[2-(2-phenylethyl)-1-pynolidinyl]-1H-indazole-5-carboxamide]"
2,107,"Cc1cc(-c2n[nH]c3ccc(C(=O)N[C@H]4CCC[C@](O)(Cn5ncc6ccc(C(F)(F)F)cc65)C4)cc23)ccn1 (relative stereo) [compound 106, N-[cis-3-hydroxy-3-[[6-(trifluoromethyl)-1H-indazol-1-yl]methyl]cyclohexyl]-3-(2-methyl-4-pyridinyl)-1H-indazole-5-carboxamide]"
3,362,"Cc1cc(-c2n[nH]c3ccc(C(=O)N[C@H]4CCC[C@](O)(Cn5ncc6ccc(F)cc65)C4)cc23)ccn1 (relative stereo) [compound 107, N-[cis-3-[(6-fluoro-1H-indazol-1-yl)methyl]-3-hydroxycyclohexyl]-3-(2-methyl-4-pyridinyl)-1H-indazole-5-carboxamide]"
4,31.3,"Cc1cc(-c2n[nH]c3ccc(C(=O)NN4CCCC(Oc5ccccc5Cl)C4)cc23)ccn1 (centres unmarked) [compound 140, N-[3-(2-chlorophenoxy)-1-piperidinyl]-3-(2-methyl-4-pyridinyl)-1H-indazole-5-carboxamide]"
5,1000,"Cc1cc(-c2n[nH]c3ccc(C(=O)N[C@H]4CCC[C@@](O)(Cn5ncc6cc(F)ccc65)C4)cc23)ccn1 (relative stereo) [compound 98, N-[trans-3-[(5-fluoro-1H-indazol-1-yl)methyl]-3-hydroxycyclohexyl]-3-(2-methyl-4-pyridinyl)-1H-indazole-5-carboxamide]"
6,1000,"Cc1cc(-c2n[nH]c3ccc(C(=O)NC4CCCC(Cn5c(C)nc6cnccc65)C4)cc23)ccn1 (centres unmarked) [compound 116, N-[3-[(2-methyl-1H-imidazo[4,5-c]pyridiN-1-yl)methyl]cyclohexyl]-3-(2-methyl-4-pyridinyl)-1H-indazole-5-carboxamide]"
7,302,"Cc1cc(-c2n[nH]c3ccc(C(=O)NC4CCCC(Cc5ccc(F)cc5)(C(=O)O)C4)cc23)ccn1 (centres unmarked) [compound 136, 1-[(4-fluorophenyl)methyl]-3-[[[3-(2-methyl-4-pyridinyl)-1H-indazol-5-yl]carbonyl]amino]cyclo-hexanecarboxylic acid]"
8,56.6,"Cc1cc(-c2n[nH]c3ccc(C(=O)NC4CCCC(Cn5ncc6cccc(F)c65)C4)cc23)ccn1 (mixture of isomers) [compound 126, N-[cis/trans-3-[(7-fluoro-1H-indazol-1-yl)methyl]cyclohexyl]-3-(2-methyl-4-pyridinyl)-1H-indazole-5-carboxamide]"
9,514,"Cc1cc(-c2n[nH]c3ccc(C(=O)NC4CCCC(N)(Cc5ccccc5F)C4)cc23)ccn1 (centres unmarked) [compound 152, N-[3-amino-3-[(2-fluorophenyl)methyl]cyclohexyl]-3-(2-methyl-4-pyridinyl)-1H-indazole-5-carboxamide]"
10,77.2,"O=C(NC1CCCC(Cn2cncn2)C1)c1ccc2[nH]nc(-c3ccc4nccn4c3)c2c1 (centres unmarked) [compound 111, 3-imidazo[1,2-a]pyridin-6-yl-N-[3-(1H-1,2,4-triazol-1-ylmethyl)cyclohexyl]-1H-indazole-5-carboxamide]"
11,937,"COCC1(Cc2ccccc2F)CCCN(NC(=O)c2ccc3[nH]nc(-c4ccnc(C)c4)c3c2)C1 (centres unmarked) [compound 149, N-[3-[(2-fluorophenyl)methyl]-3-(methoxymethyl)-1-piperidinyl]-3-(2-methyl-4-pyridinyl)-1H-indazole-5-carboxamide]"
12,704,"Cc1cc(-c2n[nH]c3ccc(C(=O)N[C@H]4CCC[C@@](O)(Cn5cc6cccc(F)c6n5)C4)cc23)ccn1 (relative stereo) [compound 102, N-[trans-3-[(7-fluoro-2H-indazol-2-yl)methyl]-3-hydroxycyclohexyl]-3-(2-methyl-4-pyridinyl)-1H-indazole-5-carboxamide]"
